Laboratory results from article PMC10584882 (Communications Biology, 2023).
Values joined by “and” are separate entries in the source; they are usually repeats but may differ in a detail not shown here. Equal entries are not always repeated.

Key:
human CatK = target: T1, human CatK (Homo sapiens, UniProt P43235); test: Cathepsin inhibition test, CatK; format: biochemical; conditions: for Residual activity (Vi/V0): Fig. S3 panel a, single replicates
T1 construct: made in house
T1 sequence (P43235 115-329): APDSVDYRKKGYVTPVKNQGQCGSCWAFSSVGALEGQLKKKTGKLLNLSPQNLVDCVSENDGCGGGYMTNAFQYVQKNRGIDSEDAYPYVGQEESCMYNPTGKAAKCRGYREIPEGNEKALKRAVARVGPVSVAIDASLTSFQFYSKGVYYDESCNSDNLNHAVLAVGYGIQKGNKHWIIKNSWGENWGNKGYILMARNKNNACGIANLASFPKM

human CatV = target: T2, human CatV (Homo sapiens, UniProt O60911); test: Cathepsin inhibition test, CatV; format: biochemical; conditions: Fig. S3 panel c, single replicates
T2 construct: made in house

SARS-CoV-2-GFP = test: microbe, parasite or virus in culture; format: cell-based; conditions: mean with standard error, read-out: VERO E6 EC50
SARS-CoV-2 [1] = test: Viral loading determination via RT-qPCR in VERO-CCL81 cells; format: cell-based; conditions: for Viral titer (% control): VERO CCL81, RT-qPCR, experiments 1 and 2
SARS-CoV-2 [2] = test: Viral loading determination via RT-qPCR in LC-HK2 cells; format: cell-based; conditions: for Viral titer (% control): LC-HK2, RT-qPCR
[3] = inhibitor 0.105 nM, 0.000105 µM
[4] = inhibitor 0.189 nM, 0.000189 µM
[5] = inhibitor 0.612 nM, 0.000612 µM
[6] = inhibitor 1.103 nM, 0.001103 µM
[7] = inhibitor 1.985 nM, 0.001985 µM
[8] = inhibitor 3.572 nM, 0.003572 µM
[9] = inhibitor 11.547 nM, 0.011547 µM

T2 sequence (O60911 114-334): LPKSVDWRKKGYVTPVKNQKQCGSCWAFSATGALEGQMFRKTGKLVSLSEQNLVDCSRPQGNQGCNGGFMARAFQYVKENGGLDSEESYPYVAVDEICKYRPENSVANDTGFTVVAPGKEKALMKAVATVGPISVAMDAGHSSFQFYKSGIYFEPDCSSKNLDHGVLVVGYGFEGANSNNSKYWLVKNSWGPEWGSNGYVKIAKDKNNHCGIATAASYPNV

## CCCC[C@H](NC(=O)[C@H](CC(C)C)NC(=O)OCc1ccccc1)C(O)S(=O)(=O)[O-].[Na+] (stereo partly drawn) [S-Calpeptin]
Human CatK; inhibitor 0.010 nM, 10 pM
  Residual activity (Vi/V0): 1.028 and 1.067 and 0.9629 and 0.9414 and 0.9225
Human CatK; inhibitor 0.018 nM, 18 pM
  Residual activity (Vi/V0): 1.062 and 1.238 and 0.9724 and 0.8624 and 0.8684
Human CatK; inhibitor 0.032 nM, 32 pM
  Residual activity (Vi/V0): 0.9319 and 1.215 and 0.8238 and 0.889 and 0.8605
Human CatK; inhibitor 0.058 nM, 58 pM
  Residual activity (Vi/V0): 0.7562 and 0.8292 and 0.7671
Human CatK; [3]
  Residual activity (Vi/V0): 1.104 and 0.8757 and 0.7581 and 0.6636 and 0.6847
Human CatK; [4]
  Residual activity (Vi/V0): 0.6363 and 0.7129 and 0.6855 and 0.6137 and 0.6926
Human CatK; inhibitor 0.340 nM, 0.00034 µM
  Residual activity (Vi/V0): 0.4419 and 0.3556 and 0.547 and 0.5599 and 0.6191
Human CatK; [5]
  Residual activity (Vi/V0): 0.562 and 0.5894 and 0.4634 and 0.3938 and 0.3707
Human CatK; [6]
  Residual activity (Vi/V0): 0.4683 and 0.4274 and 0.3853 and 0.3355 and 0.2949
Human CatK; [7]
  Residual activity (Vi/V0): 0.2888 and 0.2948 and 0.2332 and 0.2265 and 0.1772
Human CatK; [8]
  Residual activity (Vi/V0): 0.2021 and 0.2433 and 0.1658 and 0.1472 and 0.1161
Human CatK; inhibitor 6.430 nM, 0.00643 µM
  Residual activity (Vi/V0): 0.1399 and 0.09741 and 0.09721 and 0.03496
Human CatK; [9]
  Residual activity (Vi/V0): 0.01107 and 0.1108 and 0.1149 and 0.0689 and 0.02957
Human CatK; inhibitor 20.833 nM, 0.020833 µM
  Residual activity (Vi/V0): 0.08599 and -0.06715 and 0.04731 and 0.03845 and 0.01885
Human CatK; inhibitor 37.500 nM, 0.0375 µM
  Residual activity (Vi/V0): -0.05695 and -0.1347 and 0.027 and 0.005377 and -0.00068
Human CatK; mean with standard deviation and 95% confidence interval, pH 5.5, 37 °C
  Ki: 0.05 nM
Human CatV; inhibitor 0.010 nM, 10 pM
  Residual activity (Vi/V0): 0.8982 and 0.9438 and 1.016 and 0.9432 and 0.9838 and 0.9734 and 1.009 and 0.9925
Human CatV; inhibitor 0.018 nM, 18 pM
  Residual activity (Vi/V0): 0.7063 and 0.8048 and 0.9697 and 0.9452 and 0.965 and 0.9273 and 1.044 and 0.9905
Human CatV; inhibitor 0.032 nM, 32 pM
  Residual activity (Vi/V0): 0.4743 and 0.664 and 0.9379 and 0.8845 and 0.8627 and 0.9319 and 1.237 and 0.91
Human CatV; inhibitor 0.058 nM, 58 pM
  Residual activity (Vi/V0): 0.01132 and 0.01674 and 0.9458 and 0.6877 and 0.9713 and 0.8348 and 1.1467 and 0.7642
Human CatV; [3]
  Residual activity (Vi/V0): 0.5008 and 0.5002 and 0.8948 and 0.8318 and 0.8983 and 0.7019 and 1.143 and 0.6207
Human CatV; [4]
  Residual activity (Vi/V0): 0.2447 and 0.2374 and 0.7712 and 0.7606 and 0.8108 and 0.5224 and 1.02 and 0.4249
Human CatV; inhibitor 0.340 nM, 0.00034 µM
  Residual activity (Vi/V0): 0.1518 and 0.1386 and 0.6304 and 0.6112 and 0.6332 and 0.3803 and 0.6867 and 0.2117
Human CatV; [5]
  Residual activity (Vi/V0): 0.103 and 0.1097 and 0.4478 and 0.4871 and 0.5442 and 0.179 and 0.3919 and 0.1269
Human CatV; [6]
  Residual activity (Vi/V0): 0.05798 and 0.06049 and 0.2946 and 0.2993 and 0.3554 and 0.1895 and 0.2004 and 0.05784
Human CatV; [7]
  Residual activity (Vi/V0): 0.03342 and 0.03103 and 0.1055 and 0.1184 and 0.07678 and 0.1061 and 0.06687 and 0.038
Human CatV; [8]
  Residual activity (Vi/V0): 0.01297 and 0.01099 and 0.0386 and 0.03676 and 0.03768 and 0.02078 and 0.03085 and 0.02157
Human CatV; inhibitor 6.430 nM, 0.00643 µM
  Residual activity (Vi/V0): 0.008943 and 0.006591 and 0.009607 and 0.008666 and 0.01717 and 0.01084 and 0.01202 and 0.007959
Human CatV; [9]
  Residual activity (Vi/V0): 0.003173 and 0.004275 and 0.001602 and 0.001011
SARS-CoV-2-GFP
  EC50: 120 ± 54 nM
SARS-CoV-2 [1]; 0.0781 μM
  Viral titer (% control): 100 % control
SARS-CoV-2 [1]; 0.1563 μM
  Viral titer (% control): 100 % control
SARS-CoV-2 [1]; 0.3125 μM
  Viral titer (% control): 100 % control
SARS-CoV-2 [1]; 0.625 μM, listed as S-Calpepin
  Viral titer (% control): 65 % control and 61.77 % control
SARS-CoV-2 [1]; 1.25 μM, listed as S-Calpepin
  Viral titer (% control): 24 % control and 43.33 % control
SARS-CoV-2 [1]; 2.5 μM, listed as S-Calpepin
  Viral titer (% control): 24.98 % control and 48.08 % control
SARS-CoV-2 [1]; 5 μM
  Viral titer (% control): 27.38 % control
SARS-CoV-2 [1]; VERO-CCL81, RT-qPCR, 48 h post-infection, read-out: Viral titer EC50
  EC50: 700 nM
SARS-CoV-2 [2]; LC-HK2, RT-qPCR, 72 h post-infection, read-out: Viral titer EC50
  EC50: 630 nM
SARS-CoV-2 [2]; 0.0006 μM
  Viral titer (% control): 100 % control
SARS-CoV-2 [2]; 0.0012 μM
  Viral titer (% control): 100 % control
SARS-CoV-2 [2]; 0.0024 μM
  Viral titer (% control): 100 % control
SARS-CoV-2 [2]; 0.0049 μM
  Viral titer (% control): 100 % control
SARS-CoV-2 [2]; 0.0098 μM
  Viral titer (% control): 100 % control
SARS-CoV-2 [2]; 0.0195 μM
  Viral titer (% control): 100 % control
SARS-CoV-2 [2]; 0.0391 μM
  Viral titer (% control): 100 % control
SARS-CoV-2 [2]; 0.0781 μM
  Viral titer (% control): 100 % control
SARS-CoV-2 [2]; 0.1563 μM
  Viral titer (% control): 100 % control
SARS-CoV-2 [2]; 0.3125 μM, listed as S-Calpepin
  Viral titer (% control): 56.49 % control and 49.6 % control
SARS-CoV-2 [2]; 0.625 μM, listed as S-Calpepin
  Viral titer (% control): 69.04 % control and 44.94 % control
SARS-CoV-2 [2]; 1.25 μM, listed as S-Calpepin
  Viral titer (% control): 38.67 % control and 33.45 % control
